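These data come from cells grown in 96-well plates and exposed to compound for 48 hours at five concentrations. TGI denotes the concentration required for complete inhibition of growth.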
Key:
Experiment in all cases: NCI anticancer screen, dose series, 48 h
NCI-H226 lung = test system: NCI-H226 lung
OVCAR-3 ovarian = test system: OVCAR-3 ovarian
K-562 leukemia = test system: K-562 leukemia
OVCAR-8 ovarian = test system: OVCAR-8 ovarian
SK-MEL-2 melanoma = test system: SK-MEL-2 melanoma
786-0 renal = test system: 786-0 renal
SK-MEL-28 melanoma = test system: SK-MEL-28 melanoma
CAKI-1 renal = test system: CAKI-1 renal
NCI-H522 lung = test system: NCI-H522 lung
CCRF-CEM leukemia = test system: CCRF-CEM leukemia
HT29 colon = test system: HT29 colon
SN12C renal = test system: SN12C renal
M14 melanoma = test system: M14 melanoma
KM20L2 colon = test system: KM20L2 colon
SF-539 CNS = test system: SF-539 CNS
KM12 colon = test system: KM12 colon
ACHN renal = test system: ACHN renal
XF 498 CNS = test system: XF 498 CNS
OVCAR-5 ovarian = test system: OVCAR-5 ovarian
DLD-1 colon = test system: DLD-1 colon
LXFL 529 NSCLC = test system: LXFL 529 NSCLC
A549 NSCLC = test system: A549 NSCLC
U251 CNS = test system: U251 CNS
SNB-78 CNS = test system: SNB-78 CNS
RXF 393 renal = test system: RXF 393 renal
UACC-257 melanoma = test system: UACC-257 melanoma
EKVX NSCLC = test system: EKVX NSCLC
DMS 273 small cell lung = test system: DMS 273 small cell lung
UO-31 renal = test system: UO-31 renal
HL-60(TB) leukemia = test system: HL-60(TB) leukemia
SF-268 CNS = test system: SF-268 CNS
MALME-3M melanoma = test system: MALME-3M melanoma
MOLT-4 leukemia = test system: MOLT-4 leukemia
COLO 205 colon = test system: COLO 205 colon
DMS 114 small cell lung = test system: DMS 114 small cell lung
OVCAR-4 ovarian = test system: OVCAR-4 ovarian
HCT-15 colon = test system: HCT-15 colon
SW-620 colon = test system: SW-620 colon
HCT-116 colon = test system: HCT-116 colon
SF-295 CNS = test system: SF-295 CNS
TK-10 renal = test system: TK-10 renal
UACC-62 melanoma = test system: UACC-62 melanoma
RPMI-8226 leukemia = test system: RPMI-8226 leukemia
SK-MEL-5 melanoma = test system: SK-MEL-5 melanoma
IGROV1 ovarian = test system: IGROV1 ovarian
NCI-H460 lung = test system: NCI-H460 lung
LOX IMVI melanoma = test system: LOX IMVI melanoma
SNB-75 CNS = test system: SNB-75 CNS
HCC-2998 colon = test system: HCC-2998 colon
SNB-19 CNS = test system: SNB-19 CNS
M19-MEL melanoma = test system: M19-MEL melanoma
A498 renal = test system: A498 renal
HOP-62 NSCLC = test system: HOP-62 NSCLC
NCI-H23 lung = test system: NCI-H23 lung
HOP-92 NSCLC = test system: HOP-92 NSCLC
HOP-18 NSCLC = test system: HOP-18 NSCLC
SR leukemia = test system: SR leukemia

Measured: TGI

CCCCCCC(/C=N/O)C(C)(O)CCC (centres undefined)
> 100 µM: NCI-H226 lung | OVCAR-3 ovarian | K-562 leukemia | OVCAR-8 ovarian | SK-MEL-2 melanoma | 786-0 renal | SK-MEL-28 melanoma | CAKI-1 renal | NCI-H522 lung | CCRF-CEM leukemia | HT29 colon | SN12C renal | M14 melanoma | KM20L2 colon | SF-539 CNS | KM12 colon | ACHN renal | XF 498 CNS | OVCAR-5 ovarian | DLD-1 colon | LXFL 529 NSCLC | A549 NSCLC | U251 CNS | SNB-78 CNS | RXF 393 renal | UACC-257 melanoma | EKVX NSCLC | DMS 273 small cell lung | UO-31 renal | HL-60(TB) leukemia | SF-268 CNS | MALME-3M melanoma | MOLT-4 leukemia | COLO 205 colon | DMS 114 small cell lung | OVCAR-4 ovarian | HCT-15 colon | SW-620 colon | HCT-116 colon | SF-295 CNS | TK-10 renal | UACC-62 melanoma | RPMI-8226 leukemia | SK-MEL-5 melanoma | IGROV1 ovarian | NCI-H460 lung | LOX IMVI melanoma | SNB-75 CNS | HCC-2998 colon | SNB-19 CNS | M19-MEL melanoma | A498 renal | HOP-62 NSCLC | NCI-H23 lung

COC1OC2COC(c3ccccc3)OC2C(O)C1Br (centres undefined)
> 100 µM: OVCAR-3 ovarian | HOP-92 NSCLC | K-562 leukemia | HOP-18 NSCLC | OVCAR-8 ovarian | 786-0 renal | SK-MEL-28 melanoma | CAKI-1 renal | NCI-H522 lung | CCRF-CEM leukemia | HT29 colon | SN12C renal | M14 melanoma | SF-539 CNS | KM12 colon | ACHN renal | XF 498 CNS | OVCAR-5 ovarian | DLD-1 colon | LXFL 529 NSCLC | A549 NSCLC | U251 CNS | SNB-78 CNS | RXF 393 renal | UACC-257 melanoma | DMS 273 small cell lung | HL-60(TB) leukemia | SF-268 CNS | MALME-3M melanoma | MOLT-4 leukemia | COLO 205 colon | SR leukemia | OVCAR-4 ovarian | HCT-15 colon | SW-620 colon | HCT-116 colon | SF-295 CNS | TK-10 renal | UACC-62 melanoma | RPMI-8226 leukemia | SK-MEL-5 melanoma | IGROV1 ovarian | NCI-H460 lung | LOX IMVI melanoma | HCC-2998 colon | SNB-19 CNS | M19-MEL melanoma | A498 renal | HOP-62 NSCLC | NCI-H23 lung
